# Source: article PMC12042115 (mLife, 2025)
# System: wild‐type BCG cells
# Assay type: cell-based, M. bovis BCG
# Conditions: protein A0A0H3MG19, BCG_2669 (Rv2642), Arsenical resistance operon repressor; down-regulated; 3 d
structure (smiles),measurement,value
O=C(Oc1ccc(Cl)cc1)c1ccc(N2CCOCC2)c([N+](=O)[O-])c1 [GDI‐5755],Mean_Ratio (GDI5755_3d vs DMSO_3d),0.7
